Measured values published in US20240336594A1, “SIX-MEMBERED ARYL OR HETEROARYL AMIDES, AND COMPOSITION AND USE THEREOF” (BETTA PHARMACEUTICALS CO., LTD, priority 2021, published 2024).

Each molecule was assayed against T1, MALT1 (Homo sapiens, UniProt Q9UDY8) (assay: MALT1 protease inhibition assay (AMC-labeled peptide, fluorescence 360/460)). Conditions: substrate Ac-LRSR-AMC, 15 min preincubation, 90 min at 25° C.
T1 sequence (Q9UDY8 1-824): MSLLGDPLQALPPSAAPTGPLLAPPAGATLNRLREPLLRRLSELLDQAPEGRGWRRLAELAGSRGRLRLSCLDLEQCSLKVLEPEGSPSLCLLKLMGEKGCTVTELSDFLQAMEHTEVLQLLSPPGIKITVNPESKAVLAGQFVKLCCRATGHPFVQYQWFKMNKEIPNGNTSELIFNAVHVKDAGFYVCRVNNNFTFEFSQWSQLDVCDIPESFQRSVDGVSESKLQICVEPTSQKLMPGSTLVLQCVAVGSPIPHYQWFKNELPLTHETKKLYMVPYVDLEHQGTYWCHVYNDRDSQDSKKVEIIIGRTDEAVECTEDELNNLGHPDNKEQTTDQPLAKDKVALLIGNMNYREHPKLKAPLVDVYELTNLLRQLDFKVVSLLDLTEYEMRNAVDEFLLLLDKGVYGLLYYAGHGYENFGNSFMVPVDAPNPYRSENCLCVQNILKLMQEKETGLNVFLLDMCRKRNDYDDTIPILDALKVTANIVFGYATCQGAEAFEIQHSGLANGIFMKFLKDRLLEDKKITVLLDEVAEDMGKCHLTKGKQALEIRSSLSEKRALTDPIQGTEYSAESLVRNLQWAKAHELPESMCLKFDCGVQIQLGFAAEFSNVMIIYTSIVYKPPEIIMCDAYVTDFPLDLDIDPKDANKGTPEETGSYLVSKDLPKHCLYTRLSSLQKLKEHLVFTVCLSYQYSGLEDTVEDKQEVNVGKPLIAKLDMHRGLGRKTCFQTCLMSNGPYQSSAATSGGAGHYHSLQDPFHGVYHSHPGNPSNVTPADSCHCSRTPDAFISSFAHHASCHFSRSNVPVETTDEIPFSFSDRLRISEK
Type: biochemical
How it was run: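 Recombinant MALT1 preincubated with test compounds (10-point 1:3 dilutions in DMSO, duplicates) for 15 min at 25 °C in citrate-containing protease buffer with DTT, then AMC-labeled peptide added for 90 min at 25 °C. Inhibition normalized to no-compound (max) and no-enzyme (min) wells; IC50 from curve fit.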

| IC50 | SMILES |
| --- | --- |
| ≤ 10 nM | Cc1cc(-c2ccc(F)cc2N)c(F)cc1C(=O)Nc1cnc(-n2nccn2)c(Cl)c1 [Example A113] |
| ≤ 10 nM | Cc1cc(-c2ccc(F)cc2Br)c(F)cc1C(=O)Nc1cnc(-n2nccn2)c(Cl)c1 [Example A114] |
| ≤ 10 nM | Cc1cc(-c2ccc(F)cc2Cl)c(F)cc1C(=O)Nc1cnc(-n2nccn2)c(Cl)c1 [Example A115, 2′-chloro-N-(5-chloro-6-(2H-1,2,3-triazol-2-yl)pyridin-3-yl)-2,4′-difluoro-5-methyl-[1,1′-biphenyl]-4-carboxamide] |
| ≤ 10 nM | Cc1cc(-c2ccc(F)cc2F)c(F)cc1C(=O)Nc1cnc(-n2nccn2)c(Cl)c1 [Example A116, N-(5-chloro-6-(2H-1,2,3-triazol-2-yl)pyridin-3-yl)-2,2′,4′-trifluoro-5-methyl-[1,1′-biphenyl]-4-carboxamide] |
| ≤ 10 nM | C#Cc1cnc(C#N)c(N)c1-c1cc(Cl)c(C(=O)Nc2cnc(-n3nccn3)c(C(F)(F)F)c2)cc1F [Example A554, N-(6-(2H-1,2,3-triazol-2-yl)-5-(trifluoromethyl)pyridin-3-yl)-4-(3-amino-2-cyano-5-ethynylpyridin-4-yl)-2-chloro-5-fluorobenzamide] |
| ≤ 10 nM | C#Cc1c(F)nc(C)c(N)c1-c1cc(Cl)c(C(=O)Nc2cnc(-n3nccn3)c(C(F)(F)F)c2)cc1F [Example A556, N-(6-(2H-1,2,3-triazol-2-yl)-5-(trifluoromethyl)pyridin-3-yl)-4-(3-amino-5-ethynyl-6-fluoro-2-methylpyridin-4-yl)-2-chloro-5-fluorobenzamide] |
| ≤ 10 nM | C#Cc1c(F)nc(F)c(N)c1-c1cc(Cl)c(C(=O)Nc2cnc(-n3nccn3)c(C(F)(F)F)c2)cc1F [Example A557, N-(6-(2H-1,2,3-triazol-2-yl)-5-(trifluoromethyl)pyridin-3-yl)-4-(3-amino-5-ethynyl-2,6-difluoropyridin-4-yl)-2-chloro-5-fluorobenzamide] |
| ≤ 10 nM | Nc1c(Cl)ncc(Br)c1-c1cc(Cl)c(C(=O)Nc2cnc(-n3nccn3)c(C(F)(F)F)c2)cc1F [Example A558] |

More lines, now with the values behind:

| SMILES | IC50 |
| --- | --- |
| Nc1ccccc1-c1cc(Cl)c(C(=O)Nc2cnc(-n3nccn3)c(Cl)c2)cc1F [Example A109, 2′-amino-5-chloro-N-(5-chloro-6-(2H-1,2,3-triazol-2-yl)pyridin-3-yl)-2-fluoro-[1,1′-biphenyl]-4-carboxamide] | ≤ 10 nM |
| Nc1ccccc1-c1cc(F)c(C(=O)Nc2cnc(-n3nccn3)c(C(F)(F)F)c2)cc1Cl [Example A110] | ≤ 10 nM |

Each molecule was assayed on IL-2 secretion of Jurkat cells (PMA/Ionomycin inducing) (assay: ELISA method to detect IL-2 secretion induced by PMA/Ionomycin). Conditions: Homo sapiens, 20 h.
Type: cell-based
Method: 12.5*10^3 Jurkat cells were seeded on a 96-well plate and incubated with various concentrations of compound solution for 30 min. Then, 500×PMA/Ionomycin stimulating factor was diluted with culture medium and added to the cell plate. […] The final concentrations of the compounds were 10000, 3333.3, 1111.1, 370.4, 123.5, 41.2, 13.7, 4.6, 1.5, 0 nM (The final concentration of DMSO is 0.5%). After incubation for 20 h, the supernatant was collected via centrifugation. The final IL-2 concentration was detected by ELISA method (IL-2 Duoset, R&D Systems, DY202). The signal value of each sample at a wavelength of 450 nm was collected by EnVision multifunctional microplate reader and converted to the IL-2 concentration via the ELISACalc.exe software. The IL-2 secretion inhibitory activity IC50 was fitted by GraphPad Prism software. The cell viability was tested simultaneously using the Cell-Titer Glo kit.
The compounds of the present invention show strong inhibitory effect on IL-2 secretion of Jurkat cells (PMA/Ionomycin inducing).

| IC50 | SMILES |
| --- | --- |
| 234 nM | COc1cc(F)ccc1-c1cc(Cl)c(C(=O)Nc2cnc(-n3nccn3)c(C(F)(F)F)c2)cc1F [Example A112, N-(6-(2H-1,2,3-triazol-2-yl)-5-(trifluoromethyl)pyridin-3-yl)-5-chloro-2,4′-difluoro-2′-methoxy-[1,1′-biphenyl]-4-carboxamide] |
| 35 nM | Cc1cc(-c2ccc(F)cc2N)c(F)cc1C(=O)Nc1cnc(-n2nccn2)c(Cl)c1 [Example A113] |
| 34 nM | Cc1cc(-c2ccc(F)cc2Br)c(F)cc1C(=O)Nc1cnc(-n2nccn2)c(Cl)c1 [Example A114] |
| 40 nM | Cc1cc(-c2ccc(F)cc2Cl)c(F)cc1C(=O)Nc1cnc(-n2nccn2)c(Cl)c1 [Example A115, 2′-chloro-N-(5-chloro-6-(2H-1,2,3-triazol-2-yl)pyridin-3-yl)-2,4′-difluoro-5-methyl-[1,1′-biphenyl]-4-carboxamide] |
| 54 nM | Cc1cc(-c2ccc(F)cc2F)c(F)cc1C(=O)Nc1cnc(-n2nccn2)c(Cl)c1 [Example A116, N-(5-chloro-6-(2H-1,2,3-triazol-2-yl)pyridin-3-yl)-2,2′,4′-trifluoro-5-methyl-[1,1′-biphenyl]-4-carboxamide] |
| 184 nM | COc1ccccc1-c1cc(C)c(C(=O)Nc2cnc(-n3nccn3)c(Cl)c2)cc1F [Example A117, N-(5-chloro-6-(2H-1,2,3-triazol-2-yl)pyridin-3-yl)-2-fluoro-2′-methoxy-5-methyl-[1,1′-biphenyl]-4-carboxamide] |
| 82 nM | COc1cc(F)ccc1-c1cc(C)c(C(=O)Nc2cnc(-n3nccn3)c(Cl)c2)cc1F [Example A118, N-(5-chloro-6-(2H-1,2,3-triazol-2-yl)pyridin-3-yl)-2,4′-difluoro-2′-methoxy-5-methyl-[1,1′-biphenyl]-4-carboxamide] |
| 259 nM | C#Cc1cnccc1-c1cc(Cl)c(C(=O)Nc2cnc(C(=O)NCC(F)(F)F)c(Cl)c2)cc1F [Example A429, 3-chloro-5-(2-chloro-4-(3-ethynylpyridin-4-yl)-5-fluorobenzamido)-N-(2,2,2-trifluoroethyl)picolinamide] |
| 208 nM | CC(=O)c1cncc(N)c1-c1cc(Cl)c(C(=O)Nc2cnc(-n3nccn3)c(Cl)c2)cc1F [Example A529, 4-(3-acetyl-5-aminopyridin-4-yl)-2-chloro-N-(5-chloro-6-(2H-1,2,3-triazol-2-yl)pyridin-3-yl)-5-fluorobenzamide] |

Second part, the molecule before the results:

| SMILES | IC50 |
| --- | --- |
| Cc1nc(-c2ccc(F)cc2Cl)ncc1C(=O)Nc1cnc(-n2nccn2)c(C(F)(F)F)c1 [Example A12] | 285 nM |
| Cc1cc(-c2ccc(F)cc2Cl)ccc1C(=O)Nc1cnc(-n2nccn2)c(C(F)(F)F)c1 [Example A16, N-(6-(2H-1,2,3-triazol-2-yl)-5-(trifluoromethyl)pyridin-3-yl)-2′-chloro-4′-fluoro-3-methyl-[1,1′-biphenyl]-4-carboxamide] | 194 nM |
| O=C(Nc1cnc(-n2nccn2)c(C(F)(F)F)c1)c1ccc(-c2ccc(F)cc2Cl)cc1Cl [Example A17, N-(6-(2H-1,2,3-triazol-2-yl)-5-(trifluoromethyl)pyridin-3-yl)-2′,3-dichloro-4′-fluoro-[1,1′-biphenyl]-4-carboxamide] | 191 nM |
| O=C(Nc1cnc(-n2nccn2)c(C(F)(F)F)c1)c1cnc(-c2ccc(F)cc2Cl)cc1Cl [Example A18, N-(6-(2H-1,2,3-triazol-2-yl)-5-(trifluoromethyl)pyridin-3-yl)-4-chloro-6-(2-chloro-4-fluorophenyl)nicotinamide] | 598 nM |
| O=C(Nc1cnc(-n2nccn2)c(C(F)(F)F)c1)c1ccc(-c2ccc(F)cc2Cl)cc1C1CC1 [Example A19, N-(6-(2H-1,2,3-triazol-2-yl)-5-(trifluoromethyl)pyridin-3-yl)-2′-chloro-3-cyclopropyl-4′-fluoro-[1,1′-biphenyl]-4-carboxamide] | 632 nM |
| O=C(Nc1cnc(-n2nccn2)c(Cl)c1)c1ccc(-c2ccccc2Cl)cc1Cl [Example A42] | 471 nM |
| COc1ccccc1-c1ccc(C(=O)Nc2cnc(-n3nccn3)c(C(F)(F)F)c2)c(C)c1 [Example A64] | 463 nM |
| COc1ccccc1-c1cc(Cl)c(C(=O)Nc2cnc(-n3nccn3)c(C(F)(F)F)c2)cc1F [Example A67] | 325 nM |
| Nc1ccccc1-c1cc(Cl)c(C(=O)Nc2cnc(-n3nccn3)c(C(F)(F)F)c2)cc1F [Example A69] | 195 nM |
| O=C(Nc1cnc(-n2nccn2)c(Cl)c1)c1ccc(-c2ccncc2Cl)cc1Cl [Example A100] | 369 nM |
| O=C(Nc1cnc(-n2nccn2)c(Cl)c1)c1ccc(-c2ccc(F)cc2Br)cc1Cl [Example A102] | 154 nM |
| COc1cc(F)ccc1-c1ccc(C(=O)Nc2cnc(-n3nccn3)c(Cl)c2)c(Cl)c1 [Example A104] | 294 nM |
| O=C(Nc1cnc(-n2nccn2)c(C(F)(F)F)c1)c1cc(F)c(-c2ccc(F)cc2Cl)cc1Cl [Example A105] | 134 nM |
| O=C(Nc1cnc(-n2nccn2)c(C(F)(F)F)c1)c1cc(F)c(-c2ccccc2Cl)cc1Cl [Example A106, N-(6-(2H-1,2,3-triazol-2-yl)-5-(trifluoromethyl)pyridin-3-yl)-2′,5-dichloro-2-fluoro-[1,1′-biphenyl]-4-carboxamide] | 265 nM |
| Nc1ccccc1-c1cc(Cl)c(C(=O)Nc2cnc(-n3nccn3)c(Cl)c2)cc1F [Example A109, 2′-amino-5-chloro-N-(5-chloro-6-(2H-1,2,3-triazol-2-yl)pyridin-3-yl)-2-fluoro-[1,1′-biphenyl]-4-carboxamide] | 94 nM |
| Nc1ccccc1-c1cc(F)c(C(=O)Nc2cnc(-n3nccn3)c(C(F)(F)F)c2)cc1Cl [Example A110] | 186 nM |
| Nc1ccccc1-c1cc(Cl)c(C(=O)Nc2cnc(-n3nccn3)c(C(F)(F)F)c2)cc1Cl [Example A111, N-(6-(2H-1,2,3-triazol-2-yl)-5-(trifluoromethyl)pyridin-3-yl)-2′-amino-2,5-dichloro-[1,1′-biphenyl]-4-carboxamide] | 283 nM |
